Positions of bridges follow the written chain, without caps; N, C: chain ends. No end group written: not given here.
Legend:
[1] = Thioflavin-T kinetics and TEM of amyloid formation by IAPP peptides; type: physicochemical
Method: Thioflavin-T fluorescence was used to monitor the time course of h-IAPP amyloid formation in the presence and absence of sRAGE. To identify which form(s) of h-IAPP interact with RAGE, sRAGE was added to h-IAPP at various time points during the h-IAPP amyloid formation reaction. Aliquots of the reaction mixture were analyzed by adding 100 uL aliquots of the amyloid formation reaction to 96-well plates containing 8 uL of 60 uM thioflavin-T solution at various incubation times after initiation of the amyloid formation reaction. Fluorescence was measured using a Beckman Coulter DTX880 fluorescent plate reader (excitation: 445 nm and emission: 485 nm). Final solution conditions contained 16 mM tris HCl and […] thioflavin-T (pH 7.4). […] All values represent means±SEM (n=3).
Transient kinetic species of h-IAPP were characterized by TEM. TEM images confirm the presence or absence of amyloid which were indicated by thioflavin-T fluorescence. Aliquots (4 μl) were removed from the reaction mixtures monitored by thioflavin-T assays, placed on a carbon-coated 200-mesh copper grid and negatively stained with saturated uranyl acetate. The samples were imaged with a Philips CM12 transmission electron microscope at the New York University electron microscopy core facility. Final solution conditions contained 16 mM tris HCl (pH 7.4).

rat INS-1 β-cells = test: AlamarBlue cell viability assay of β-cells; type: cell-based; conditions: for onset and duration of toxicity compared to wild type: side-by-side with kinetics, 20 uM for the Ser-20 mutants
Method: Transformed rat insulinoma-1 (INS-1) β-cells (which express RAGE) are a pancreatic beta cell line commonly used for studies of h-IAPP induced toxicity. INS-1 cells were grown in RPMI 1640 supplemented with 10% fetal bovine serum (FBS), 11 mM glucose, 10 mM Hepes, 2 mM L-glutamine, 1 mM sodium pyruvate, 50 μM β-mercaptoethanol, 100 U/ml penicillin, and […] streptomycin. Cells were maintained at 37° C./5% CO2.
Cyto-toxicity was measured by AlamarBlue assay. INS-1 β-cells were seeded at a density of 30,000 cells per well in 96-well plates and cultured for 24 hours prior to stimulation with IAPP. Human and rat IAPP were dissolved and incubated in 16 mM tris HCl (pH 7.4, 25° C.) prior to cell stimulation. AlamarBlue was diluted ten-fold in culture media and cells were incubated for 5 hours at 37° C. Fluorescence (excitation 530; emission 590 nm) was measured on a Beckman Coulter DTX880 fluorescent plate reader. Values calculated were relative to those of control cells treated with buffer only. All values represent means±SEM (n=3).
Changes in cell morphology were examined by light microscopy to provide a second method of evaluating cell viability. Transformed rat INS-1 beta cells were photographed immediately prior to assessment of toxicity by Alamar blue cell viability assays. Images were taken using an Olympus BX-61 light microscope.

[2] = tested on: MCP-1 and IL-1β mRNA expression; test: qRT-PCR of MCP-1 and IL-1β mRNA in β-cells; type: cell-based, rat; conditions: β-cells stimulated with peptide
Method: (§1) Assays for qRT-PCR were carried out in 6-well plates. Total cellular RNA was isolated from h-IAPP stimulated β-cells using Qiagen RNA isolation kit, and the quality of RNA samples was determined by measurement of 260:280 ratio. Only samples with a 260:280 ratio of 2.0 or higher were used for reverse transcription. RNA samples were also treated by RNAse-free DNAse to avoid genomic DNA contamination. One microgram of RNA from each sample was reverse-transcribed to cDNA using MCP-1 and IL-1β primers. Non-template negative controls were also performed to monitor non-specific reactions. RNA isolated from rat IAPP and non-h-IAPP treated beta cells were used as negative controls. Equal amounts of RNA were used in each qRT-PCR reaction, and 18S was used as the internal control for amplification at the same time. qRT-PCR reactions were carried out using an Applied Biosystems 7500 RealTime PCR machine. The relative mRNA contents were normalized using 18S and quantification was carried out using qRT-PCR Quantifier Software.

sRAGE [3] = target: T1, sRAGE (Homo sapiens, UniProt Q15109); test: Difference CD of IAPP peptides with sRAGE; type: binding; conditions: end point of the reactions
T1 construct: the soluble extracellular domain of RAGE (sRAGE); made in house; host or cells: Sf9 insect cells (baculovirus)
T1 sequence (Q15109 23-342): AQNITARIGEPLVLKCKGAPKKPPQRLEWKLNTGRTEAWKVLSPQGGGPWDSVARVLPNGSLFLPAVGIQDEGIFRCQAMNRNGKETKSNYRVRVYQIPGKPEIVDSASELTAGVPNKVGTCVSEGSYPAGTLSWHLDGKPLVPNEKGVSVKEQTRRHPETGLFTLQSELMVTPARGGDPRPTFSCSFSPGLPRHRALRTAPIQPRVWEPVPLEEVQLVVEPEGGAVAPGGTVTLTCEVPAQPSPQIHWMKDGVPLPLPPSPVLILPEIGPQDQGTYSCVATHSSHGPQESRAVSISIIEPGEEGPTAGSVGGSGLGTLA
Method: CD measurements of IAPP, sRAGE and IAPP/sRAGE reactions were taken at various incubation times. Far-UV CD experiments monitor the development of secondary structure of h-IAPP species and give insight into the conformational requirement for IAPP/RAGE-binding. All CD experiments were performed on an Applied Photophysics circular dichroism spectrophotometer by directly transferring 300 μL of peptide solution from kinetic assays into a 0.1 cm quartz cuvette a few minutes prior to data collection. The CD spectra for sRAGE and tris HCl buffer was subtracted from all RAGE/IAPP mixtures. The final far-UV CD data was collected over the range of 190 to 260 nm. Final solution conditions contained 16 mM tris HCl (pH 7.4).

sRAGE [4] = target: T1, sRAGE; test: Tryptophan fluorescence quenching assay of sRAGE binding; conditions: sRAGE added at different time points of the reaction, 1:1 molar ratio
Source text: The quenching of tryptophan fluorescence indicates binding. Fluorescence measurements were made at right angle in a […] dual path length quartz cuvette, using a Photon Technology International fluorescent spectrometer (280 nm excitation and 350 nm emission). Background fluorescence from buffer and IAPP peptides were negligible. The fluorescence quantum yield reported for each time point is an average of 20 reads over 20 seconds (2.5 nm bandwidth and 1 second integration time). Final solution conditions contained 16 mM tris HCl (pH 7.4).

[5] = tested on: MCP-1 and IL-1β mRNA expression; test: qRT-PCR of MCP-1 and IL-1β mRNA in smooth muscle cells; type: cell-based, mouse; conditions: peptide stimulation
Method: Mouse vascular SMCs were cultured from the aortas of 10-week-old male mice using a modification of the procedure of Tarvo and Barret. See Tarvo et al. Blood Vessels. 1980; 17:110-116. SMCs were cultured following an explant protocol in accordance with institutional guidelines. Cultures were composed of 95% SM-α-actin positivity based on immunostaining.
as §1

[6] = target: T2, soluble RAGE (sRAGE), soluble extracellular domain of the receptor for advanced glycation endproducts (human, UniProt Q15109 23-342, glycosylated (heterogeneity in GlcN and GlcNAc glycosylation by MALDI-TOF)); test: tryptophan fluorescence quenching
T2 construct: The purification protocol gives two species, full length (36,254 Da) and C-truncated (34,710 Da); also called human sRAGE
T2 sequence (Q15109 23-342): as above
Source text: (E) Trp fluorescence quenching experiments.
Binding of ligands to this region should alter the environment of the tryptophans and lead to a change in their fluorescent quantum yield. Thus, the quenching of tryptophan fluorescence can be used to monitor binding.

[7] = target: T2, soluble RAGE (sRAGE), soluble …; test: tryptophan fluorescence quenching; sRAGE added at different time points of the aggregation reaction

## 3×L-IAPP: h-IAPP triple mutant in which leucines replaced F15, F23 and Y37 (KCNTATCATQRLANLLVHSSNNLGAILSSTNVGSNTL-NH2; disulfide 2-7; N-terminus assumed; SMILES CC[C@H](C)[C@H](NC(=O)[C@H](C)NC(=O)CNC(=O)[C@H](CC(C)C)NC(=O)[C@H](CC(N)=O)NC(=O)[C@H](CC(N)=O)NC(=O)[C@H](CO)NC(=O)[C@H](CO)NC(=O)[C@H](Cc1c[nH]cn1)NC(=O)[C@@H](NC(=O)[C@H](CC(C)C)NC(=O)[C@H](CC(C)C)NC(=O)[C@H](CC(N)=O)NC(=O)[C@H](C)NC(=O)[C@H](CC(C)C)NC(=O)[C@H](CCCNC(=N)N)NC(=O)[C@H](CCC(N)=O)NC(=O)[C@@H](NC(=O)[C@H](C)NC(=O)[C@@H]1CSSC[C@H](NC(=O)[C@@H](N)CCCCN)C(=O)N[C@@H](CC(N)=O)C(=O)N[C@@H]([C@@H](C)O)C(=O)N[C@@H](C)C(=O)N[C@@H]([C@@H](C)O)C(=O)N1)[C@@H](C)O)C(C)C)C(=O)N[C@@H](CC(C)C)C(=O)N[C@@H](CO)C(=O)N[C@@H](CO)C(=O)N[C@H](C(=O)N[C@@H](CC(N)=O)C(=O)N[C@H](C(=O)NCC(=O)N[C@@H](CO)C(=O)N[C@@H](CC(N)=O)C(=O)N[C@H](C(=O)N[C@@H](CC(C)C)C(N)=O)[C@@H](C)O)C(C)C)[C@@H](C)O; UniProt P10997 34-70, looked up, variant F15L F23L Y37L)
[1]; triple mutant, leucines at positions 15, 23 and 37
  amyloid formation, slower than wild type: 6 fold
Rat INS-1 β-cells
  onset and duration of toxicity compared to wild type: longer duration of toxicity than observed with wild type

## S20K-IAPP: h-IAPP with Ser-20 substituted by lysine (KCNTATCATQRLANFLVHSKNNFGAILSSTNVGSNTY-NH2; disulfide 2-7; N-terminus assumed; SMILES CC[C@H](C)[C@H](NC(=O)[C@H](C)NC(=O)CNC(=O)[C@H](Cc1ccccc1)NC(=O)[C@H](CC(N)=O)NC(=O)[C@H](CC(N)=O)NC(=O)[C@H](CCCCN)NC(=O)[C@H](CO)NC(=O)[C@H](Cc1c[nH]cn1)NC(=O)[C@@H](NC(=O)[C@H](CC(C)C)NC(=O)[C@H](Cc1ccccc1)NC(=O)[C@H](CC(N)=O)NC(=O)[C@H](C)NC(=O)[C@H](CC(C)C)NC(=O)[C@H](CCCNC(=N)N)NC(=O)[C@H](CCC(N)=O)NC(=O)[C@@H](NC(=O)[C@H](C)NC(=O)[C@@H]1CSSC[C@H](NC(=O)[C@@H](N)CCCCN)C(=O)N[C@@H](CC(N)=O)C(=O)N[C@@H]([C@@H](C)O)C(=O)N[C@@H](C)C(=O)N[C@@H]([C@@H](C)O)C(=O)N1)[C@@H](C)O)C(C)C)C(=O)N[C@@H](CC(C)C)C(=O)N[C@@H](CO)C(=O)N[C@@H](CO)C(=O)N[C@H](C(=O)N[C@@H](CC(N)=O)C(=O)N[C@H](C(=O)NCC(=O)N[C@@H](CO)C(=O)N[C@@H](CC(N)=O)C(=O)N[C@H](C(=O)N[C@@H](Cc1ccc(O)cc1)C(N)=O)[C@@H](C)O)C(C)C)[C@@H](C)O; UniProt P10997 34-70, looked up, variant S20K)
[1]; 20 uM, pH 7.4 25° C.
  rate of aggregation compared to wild type: slower aggregation rate
Rat INS-1 β-cells
  onset and duration of toxicity compared to wild type: shifts the onset of toxicity to later time points and increases its duration

## rat IAPP: non-amyloidogenic, non-toxic rat IAPP used as negative control
[2]
  MCP-1 and IL-1β mRNA expression: does not induce up-regulation
sRAGE [3]
  interaction with sRAGE (difference CD): does not interact
[1]; peptide by itself
  amyloid formation (thioflavin-T): does not form amyloid at any time point
sRAGE [4]
  binding to sRAGE (tryptophan fluorescence quenching): No binding
[5]
  MCP-1 and IL-1β mRNA expression in smooth muscle cells: rat IAPP does not
Rat INS-1 β-cells; peptide incubated in buffer at room temperature for various times, then applied to INS-1 β-cells
  cell toxicity (AlamarBlue cell viability, light microscopy): No toxicity was observed at any time point

B1: rat IAPP (peptide, UniProt P12969 38-74, looked up)
peptide: KCNTATCATQRLANFLVRSSNNLGPVLPPTNVGSNTY-NH2
modifications: disulfide 2-7
notes: mature; also called non-toxic rat IAPP; non-amyloidogenic rat IAPP
[6]
  binding result: no binding (tested: 20 µM rat IAPP, 1:1 molar ratio)

B2: I26P-IAPP (I26P point mutant of human IAPP) (peptide)
peptide: KCNTATCATQRLANFLVHSSNNFGAPLSSTNVGSNTY-NH2
modifications: disulfide 2-7; N-terminus assumed
SMILES: CC(C)C[C@H](NC(=O)[C@H](CCCNC(=N)N)NC(=O)[C@H](CCC(N)=O)NC(=O)[C@@H](NC(=O)[C@H](C)NC(=O)[C@@H]1CSSC[C@H](NC(=O)[C@@H](N)CCCCN)C(=O)N[C@@H](CC(N)=O)C(=O)N[C@@H]([C@@H](C)O)C(=O)N[C@@H](C)C(=O)N[C@@H]([C@@H](C)O)C(=O)N1)[C@@H](C)O)C(=O)N[C@@H](C)C(=O)N[C@@H](CC(N)=O)C(=O)N[C@@H](Cc1ccccc1)C(=O)N[C@@H](CC(C)C)C(=O)N[C@H](C(=O)N[C@@H](Cc1c[nH]cn1)C(=O)N[C@@H](CO)C(=O)N[C@@H](CO)C(=O)N[C@@H](CC(N)=O)C(=O)N[C@@H](CC(N)=O)C(=O)N[C@@H](Cc1ccccc1)C(=O)NCC(=O)N[C@@H](C)C(=O)N1CCC[C@H]1C(=O)N[C@@H](CC(C)C)C(=O)N[C@@H](CO)C(=O)N[C@@H](CO)C(=O)N[C@H](C(=O)N[C@@H](CC(N)=O)C(=O)N[C@H](C(=O)NCC(=O)N[C@@H](CO)C(=O)N[C@@H](CC(N)=O)C(=O)N[C@H](C(=O)N[C@@H](Cc1ccc(O)cc1)C(N)=O)[C@@H](C)O)C(C)C)[C@@H](C)O)C(C)C
notes: also called nontoxic, aggregation-prone I26P-IAPP variant of h-IAPP
[7]
  binding result: no binding

Reference: patent publication US20130022620A1, “ASSAYS AND METHODS PERTAINING TO PRE-AMYLOID INTERMEDIATES” (priority 2011, published 2013)
